Experimental data taken from ChEMBL document CHEMBL1201862, “PubChem BioAssay data set” (2004).
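Exposure lasted 48 hours, with cells grown in 96-well plates and compounds tested at five concentrations. GI50: concentration for 50% inhibition of growth.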 Activity calls are given as the source filed them. Rule as the data show it: active = GI50 up to about 1.1 µM and inactive = higher.

What was measured:
Assay in all cases: NCI anticancer screen, dose series, 48 h
786-0 = system: 786-0
A498 = system: A498
A549 = system: A549
ACHN = system: ACHN
BT-549 = system: BT-549
CAKI-1 = system: CAKI-1
CCRF-CEM = system: CCRF-CEM
COLO 205 = system: COLO 205
DU-145 = system: DU-145
EKVX = system: EKVX
HCC 2998 = system: HCC 2998
HCT-116 = system: HCT-116
HCT-15 = system: HCT-15
HL-60 = system: HL-60
HOP-62 = system: HOP-62
HOP-92 = system: HOP-92
HT-29 = system: HT-29
Hs-578T = system: Hs-578T
IGROV-1 = system: IGROV-1
K562 = system: K562
KM12 = system: KM12
LOX IMVI = system: LOX IMVI
M14 = system: M14
MCF7 = system: MCF7
MDA-N = system: MDA-N
MOLT-4 = system: MOLT-4
Malme-3M = system: Malme-3M
NCI-H226 = system: NCI-H226
NCI-H23 = system: NCI-H23
NCI-H460 = system: NCI-H460
NCI-H522 = system: NCI-H522
NCI/ADR-RES = system: NCI/ADR-RES
OVCAR-3 = system: OVCAR-3
OVCAR-4 = system: OVCAR-4
OVCAR-5 = system: OVCAR-5
OVCAR-8 = system: OVCAR-8
PC-3 = system: PC-3
RPMI-8226 = system: RPMI-8226
RXF 393 = system: RXF 393
SF-268 = system: SF-268
SF-295 = system: SF-295
SF-539 = system: SF-539
SK-MEL-28 = system: SK-MEL-28
SK-MEL-2 = system: SK-MEL-2
SK-MEL-5 = system: SK-MEL-5
SK-OV-3 = system: SK-OV-3
SN12C = system: SN12C
SNB-19 = system: SNB-19
SNB-75 = system: SNB-75
SR = system: SR
SW-620 = system: SW-620
T47D = system: T47D
TK-10 = system: TK-10
U-251 = system: U-251
UACC-257 = system: UACC-257
UO-31 = system: UO-31
MDA-MB-231 = system: MDA-MB-231
UACC-62 = system: UACC-62
MDA-MB-435 = system: MDA-MB-435

`CC1=NN(c2nc(N)nc(C(C)Sc3cc(Cl)c(C)cc3S(N)(=O)=O)n2)C(C)(C)C1` (stereo unspecified) was tested, and the GI50 (786-0) was > 10 µM (inactive), the GI50 (A498) was > 10 µM (inactive) and the GI50 (A549) was > 10 µM (inactive). The GI50 (ACHN) was > 10 µM (inactive), the GI50 (BT-549) was > 10 µM (inactive) and the GI50 (CAKI-1) was > 10 µM (inactive). For the same compound, the GI50 (CCRF-CEM) was > 10 µM (inactive), the GI50 (COLO 205) was > 10 µM (inactive) and the GI50 (DU-145) was > 10 µM (inactive). The GI50 (EKVX) was > 10 µM (inactive), the GI50 (HCC 2998) was > 10 µM (inactive) and the GI50 (HCT-116) was > 10 µM (inactive). The GI50 (HCT-15) was > 10 µM, the GI50 (HL-60) was > 10 µM (inactive) and the GI50 (HOP-62) was > 10 µM (inactive). For the same compound, the GI50 (HOP-92) was > 10 µM (inactive), the GI50 (HT-29) was > 10 µM (inactive) and the GI50 (Hs-578T) was > 10 µM (inactive). For the same compound, the GI50 (IGROV-1) was > 10 µM (inactive), the GI50 (K562) was > 10 µM (inactive) and the GI50 (KM12) was > 10 µM (inactive). For the same compound, the GI50 (LOX IMVI) was > 10 µM (inactive), the GI50 (M14) was > 10 µM (inactive) and the GI50 (MCF7) was > 10 µM (inactive). For the same compound, the GI50 (MDA-N) was > 10 µM (inactive), the GI50 (MOLT-4) was > 10 µM (inactive) and the GI50 (Malme-3M) was > 10 µM (inactive). The GI50 (NCI-H226) was > 10 µM (inactive), the GI50 (NCI-H23) was > 10 µM (inactive) and the GI50 (NCI-H460) was > 10 µM (inactive). For the same compound, the GI50 (NCI-H522) was > 10 µM (inactive), the GI50 (NCI/ADR-RES) was > 10 µM (inactive) and the GI50 (OVCAR-3) was > 10 µM (inactive). The GI50 (OVCAR-4) was > 10 µM (inactive), the GI50 (OVCAR-5) was > 10 µM (inactive) and the GI50 (OVCAR-8) was > 10 µM (inactive). For the same compound, the GI50 (PC-3) was > 10 µM (inactive), the GI50 (RPMI-8226) was > 10 µM (inactive) and the GI50 (RXF 393) was > 10 µM (inactive). The GI50 (SF-268) was > 10 µM (inactive), the GI50 (SF-295) was > 10 µM (inactive) and the GI50 (SF-539) was > 10 µM (inactive). The GI50 (SK-MEL-28) was > 10 µM (inactive), the GI50 (SK-MEL-2) was > 10 µM (inactive) and the GI50 (SK-MEL-5) was > 10 µM (inactive). For the same compound, the GI50 (SK-OV-3) was > 10 µM (inactive), the GI50 (SN12C) was > 10 µM (inactive) and the GI50 (SNB-19) was > 10 µM (inactive). The GI50 (SNB-75) was > 10 µM (inactive), the GI50 (SR) was > 10 µM (inactive) and the GI50 (SW-620) was > 10 µM (inactive). The GI50 (T47D) was > 10 µM (inactive), the GI50 (TK-10) was > 10 µM (inactive) and the GI50 (U-251) was > 10 µM (inactive). The GI50 (UACC-257) was > 10 µM (inactive) and the GI50 (UO-31) was > 10 µM (inactive).

With `NN/C(=N\S(=O)(=O)c1ccc(-c2ccccn2)s1)Nc1ccc(Cl)cc1` the GI50 (786-0) was 29.2 µM (inactive), the GI50 (A498) was > 100 µM (inactive) and the GI50 (A549) was 59 µM (inactive). For the same compound, the GI50 (ACHN) was > 100 µM (inactive), the GI50 (BT-549) was > 100 µM (inactive) and the GI50 (CAKI-1) was 58.6 µM (inactive). The GI50 (COLO 205) was > 100 µM (inactive), the GI50 (DU-145) was > 100 µM (inactive) and the GI50 (EKVX) was 53.6 µM (inactive). The GI50 (HCT-116) was > 100 µM (inactive), the GI50 (HCT-15) was > 100 µM and the GI50 (HL-60) was > 100 µM (inactive). The GI50 (HOP-62) was 38.9 µM (inactive), the GI50 (HOP-92) was 68.5 µM (inactive) and the GI50 (HT-29) was > 100 µM (inactive). The GI50 (IGROV-1) was > 100 µM (inactive), the GI50 (K562) was > 100 µM (inactive) and the GI50 (KM12) was > 100 µM (inactive). The GI50 (LOX IMVI) was > 100 µM (inactive), the GI50 (M14) was > 100 µM (inactive) and the GI50 (MCF7) was > 100 µM (inactive). For the same compound, the GI50 (MDA-MB-231) was > 100 µM (inactive), the GI50 (MDA-N) was > 100 µM (inactive) and the GI50 (MOLT-4) was 32.7 µM (inactive). For the same compound, the GI50 (NCI-H226) was 75.2 µM (inactive), the GI50 (NCI-H23) was > 100 µM (inactive) and the GI50 (NCI-H460) was > 100 µM (inactive). The GI50 (NCI-H522) was 0.265 µM (active), the GI50 (NCI/ADR-RES) was > 100 µM (inactive) and the GI50 (OVCAR-3) was 73.8 µM (inactive). For the same compound, the GI50 (OVCAR-4) was 85.9 µM (inactive), the GI50 (OVCAR-5) was > 100 µM (inactive) and the GI50 (OVCAR-8) was 83.6 µM (inactive). For the same compound, the GI50 (PC-3) was > 100 µM (inactive), the GI50 (RPMI-8226) was > 100 µM (inactive) and the GI50 (RXF 393) was 30.5 µM (inactive). The GI50 (SF-268) was 22.1 µM (inactive), the GI50 (SF-295) was 52.5 µM (inactive) and the GI50 (SF-539) was 38.9 µM (inactive). For the same compound, the GI50 (SK-MEL-28) was > 100 µM (inactive), the GI50 (SK-MEL-2) was > 100 µM (inactive) and the GI50 (SK-MEL-5) was > 100 µM (inactive). The GI50 (SK-OV-3) was 88.9 µM (inactive), the GI50 (SN12C) was > 100 µM (inactive) and the GI50 (SNB-19) was 42.1 µM (inactive). The GI50 (SNB-75) was 25.6 µM (inactive), the GI50 (SW-620) was > 100 µM (inactive) and the GI50 (T47D) was 38.1 µM (inactive). For the same compound, the GI50 (TK-10) was > 100 µM (inactive), the GI50 (U-251) was 44.2 µM (inactive) and the GI50 (UACC-257) was > 100 µM (inactive). For the same compound, the GI50 (UACC-62) was > 100 µM (inactive) and the GI50 (UO-31) was 43.9 µM (inactive).

With `COc1cccc2c1OC1c3ccccc3OCC1(O)C2` (stereo unspecified) the GI50 (786-0) was > 100 µM (inactive), the GI50 (A498) was > 100 µM (inactive) and the GI50 (A549) was > 100 µM (inactive). For the same compound, the GI50 (ACHN) was > 100 µM (inactive), the GI50 (BT-549) was > 100 µM (inactive) and the GI50 (CAKI-1) was > 100 µM (inactive). For the same compound, the GI50 (CCRF-CEM) was > 100 µM (inactive), the GI50 (COLO 205) was > 100 µM (inactive) and the GI50 (DU-145) was > 100 µM (inactive). The GI50 (EKVX) was > 100 µM (inactive), the GI50 (HCC 2998) was > 100 µM (inactive) and the GI50 (HCT-116) was > 100 µM (inactive). The GI50 (HCT-15) was > 100 µM, the GI50 (HOP-62) was > 100 µM (inactive) and the GI50 (HOP-92) was > 100 µM (inactive). For the same compound, the GI50 (HT-29) was > 100 µM (inactive), the GI50 (IGROV-1) was > 100 µM (inactive) and the GI50 (K562) was > 100 µM (inactive). The GI50 (KM12) was > 100 µM (inactive), the GI50 (LOX IMVI) was > 100 µM (inactive) and the GI50 (M14) was > 100 µM (inactive). For the same compound, the GI50 (MCF7) was > 100 µM (inactive), the GI50 (MDA-MB-231) was > 100 µM (inactive) and the GI50 (MDA-MB-435) was > 100 µM (inactive). For the same compound, the GI50 (MDA-N) was > 100 µM (inactive), the GI50 (MOLT-4) was > 100 µM (inactive) and the GI50 (Malme-3M) was > 100 µM (inactive). The GI50 (NCI-H226) was > 100 µM (inactive), the GI50 (NCI-H23) was > 100 µM (inactive) and the GI50 (NCI-H522) was > 100 µM (inactive). The GI50 (NCI/ADR-RES) was > 100 µM (inactive), the GI50 (OVCAR-3) was > 100 µM (inactive) and the GI50 (OVCAR-4) was > 100 µM (inactive). For the same compound, the GI50 (OVCAR-5) was > 100 µM (inactive), the GI50 (OVCAR-8) was > 100 µM (inactive) and the GI50 (PC-3) was > 100 µM (inactive). For the same compound, the GI50 (RPMI-8226) was > 100 µM (inactive), the GI50 (SF-268) was > 100 µM (inactive) and the GI50 (SF-295) was > 100 µM (inactive). The GI50 (SF-539) was > 100 µM (inactive), the GI50 (SK-MEL-2) was > 100 µM (inactive) and the GI50 (SK-MEL-5) was > 100 µM (inactive). The GI50 (SK-OV-3) was > 100 µM (inactive), the GI50 (SN12C) was > 100 µM (inactive) and the GI50 (SNB-75) was > 100 µM (inactive). For the same compound, the GI50 (SW-620) was > 100 µM (inactive), the GI50 (T47D) was > 100 µM (inactive) and the GI50 (TK-10) was > 100 µM (inactive). The GI50 (U-251) was > 100 µM (inactive), the GI50 (UACC-257) was > 100 µM (inactive) and the GI50 (UACC-62) was > 100 µM (inactive). The GI50 (UO-31) was > 100 µM (inactive).
